Results as given in article PMC10620772, “Design, synthesis, and biological evaluation of new pyrimidine-5-carbonitrile derivatives as novel anti-cancer, dual EGFR^WT/COX-2 inhibitors with docking studies” (RSC Advances, 2023).

Legend:
Format in all cases: cell-based, human
OVCAR-3 = assay: NCI60 antitumor screening; details: 10 μM one-dose
HCT-116 = assay: NCI60 antitumor screening; details: 10 μM one-dose
RPMI-8226 = assay: NCI60 antitumor screening; details: 10 μM one-dose
HOP-62 = assay: NCI60 antitumor screening; details: 10 μM one-dose
HCC-2998 = assay: NCI60 antitumor screening; details: 10 μM one-dose
KM12 = assay: NCI60 antitumor screening; details: 10 μM one-dose
SN12C = assay: NCI60 antitumor screening; details: 10 μM one-dose
MDA-MB-435 = assay: NCI60 antitumor screening; details: 10 μM one-dose
MALME-3M = assay: NCI60 antitumor screening; details: 10 μM one-dose
SNB-19 = assay: NCI60 antitumor screening; details: 10 μM one-dose
T-47D = assay: NCI60 antitumor screening; details: 10 μM one-dose
A498 = assay: NCI60 antitumor screening; details: 10 μM one-dose
NCI/ADR-RES = assay: NCI60 antitumor screening; details: 10 μM one-dose
HCT-15 = assay: NCI60 antitumor screening; details: 10 μM one-dose
UO-31 = assay: NCI60 antitumor screening; details: 10 μM one-dose
MDA-MB-231/ATCC = assay: NCI60 antitumor screening; details: 10 μM one-dose
NCI-H460 = assay: NCI60 antitumor screening; details: 10 μM one-dose
SK-MEL-28 = assay: NCI60 antitumor screening; details: 10 μM one-dose
SF-539 = assay: NCI60 antitumor screening; details: 10 μM one-dose
M14 = assay: NCI60 antitumor screening; details: 10 μM one-dose
OVCAR-4 = assay: NCI60 antitumor screening; details: 10 μM one-dose
OVCAR-8 = assay: NCI60 antitumor screening; details: 10 μM one-dose
SNB-75 = assay: NCI60 antitumor screening; details: 10 μM one-dose
NCI-H522 = assay: NCI60 antitumor screening; details: 10 μM one-dose
NCI-H23 = assay: NCI60 antitumor screening; details: 10 μM one-dose
RXF 393 = assay: NCI60 antitumor screening; details: 10 μM one-dose
HS 578T = assay: NCI60 antitumor screening; details: 10 μM one-dose
LOX IMVI = assay: NCI60 antitumor screening; details: 10 μM one-dose
SF-295 = assay: NCI60 antitumor screening; details: 10 μM one-dose
HL-60(TB) = assay: NCI60 antitumor screening; details: 10 μM one-dose
ACHN = assay: NCI60 antitumor screening; details: 10 μM one-dose
COLO 205 = assay: NCI60 antitumor screening; details: 10 μM one-dose
786–0 = assay: NCI60 antitumor screening; details: 10 μM one-dose
SW-620 = assay: NCI60 antitumor screening; details: 10 μM one-dose
CAKI-1 = assay: NCI60 antitumor screening; details: 10 μM one-dose
SR = assay: NCI60 antitumor screening; details: 10 μM one-dose
SK-MEL-5 = assay: NCI60 antitumor screening; details: 10 μM one-dose
K-562 = assay: NCI60 antitumor screening; details: 10 μM one-dose
CCRF-CEM = assay: NCI60 antitumor screening; details: 10 μM one-dose
SK-MEL-2 = assay: NCI60 antitumor screening; details: 10 μM one-dose
TK-10 = assay: NCI60 antitumor screening; details: 10 μM one-dose
A549/ATCC = assay: NCI60 antitumor screening; details: 10 μM one-dose
HOP-92 = assay: NCI60 antitumor screening; details: 10 μM one-dose
MCF7 = assay: NCI60 antitumor screening; details: 10 μM one-dose
BT-549 = assay: NCI60 antitumor screening; details: 10 μM one-dose
NCI-H226 = assay: NCI60 antitumor screening; details: 10 μM one-dose
IGROV1 = assay: NCI60 antitumor screening; details: 10 μM one-dose
MDA-MB-468 = assay: NCI60 antitumor screening; details: 10 μM one-dose
EKVX = assay: NCI60 antitumor screening; details: 10 μM one-dose
SF-268 = assay: NCI60 antitumor screening; details: 10 μM one-dose
DU-145 = assay: NCI60 antitumor screening; details: 10 μM one-dose
UACC-257 = assay: NCI60 antitumor screening; details: 10 μM one-dose
PC-3 = assay: NCI60 antitumor screening; details: 10 μM one-dose
SK-OV-3 = assay: NCI60 antitumor screening; details: 10 μM one-dose
NCI60 cell lines panel = assay: NCI60 antitumor screening, full panel; details: 10 μM one-dose, mean over NCI60
Experimental: The National Cancer Institute (NCI), Bethesda, Maryland, United States, selected all of the novel synthesized compounds (2b–d, 3a–d and 4a–p) for in vitro antitumor screening at a single concentration of 10 μM toward the NCI60 cell lines panel covering leukaemia, non-small cell lungs, colon, central nervous system (CNS), melanoma, ovarian, renal, prostate, and breast cancer cells.[32–35] The data were reported as a mean graph of the percent growth of the treated cell lines and expressed as percentage growth inhibition (GI%) in Table 1 and ESI 1.
(2) The molar concentration of the compound responsible for total growth inhibition, also known as total growth inhibition (TGI).
Regarding subpanel selectivity toward certain cancer type, the method of determining a compound's selectivity index is to divide the full panel MG-MID (μM) value by each single subpanel. Values above six indicate high selectivity against the subpanel; moderate selectivity is denoted by values between three and six. Conversely, compounds are termed nonselective if their selectivity is less than three.[30,37]

HT29 = assay: NCI60 antitumor screening; details: 10 μM one-dose
U251 = assay: NCI60 antitumor screening; details: 10 μM one-dose
MOLT-4 = assay: NCI60 antitumor screening; details: 10 μM one-dose
OVCAR-5 = assay: NCI60 antitumor screening; details: 10 μM one-dose
UACC-62 = assay: NCI60 antitumor screening; details: 10 μM one-dose
NCI-H322M = assay: NCI60 antitumor screening; details: 10 μM one-dose

Compound: N#Cc1c(Cl)nc(SCc2ccc([N+](=O)[O-])cc2)nc1-c1ccc(F)cc1 [3c, 4-Chloro-6-(4-fluorophenyl)-2-((4-nitrobenzyl)thio) pyrimidine-5-carbonitrile]
- GI% (OVCAR-3): 13.71%
- GI% (HCT-116): 40.70%
- GI% (RPMI-8226): 41.51%
- GI% (HOP-62): — (GI% < 10)
- GI% (HCC-2998): 12.17%
- GI% (KM12): 27.77%
- GI% (SN12C): 29.81%
- GI% (MDA-MB-435): — (GI% < 10)
- GI% (MALME-3M): — (GI% < 10)
- GI% (SNB-19): 10.67%
- GI% (T-47D): 68.67%
- GI% (A498): — (GI% < 10)
- GI% (NCI/ADR-RES): 27.59%
- GI% (HCT-15): 45.64%
- GI% (UO-31): 32.10%
- GI% (MDA-MB-231/ATCC): — (GI% < 10)
- GI% (NCI-H460): 13.48%
- GI% (SK-MEL-28): — (GI% < 10)
- GI% (SF-539): 28.21%
- GI% (M14): 12.41%
- GI% (OVCAR-4): 18.42%
- GI% (OVCAR-8): 16.16%
- GI% (SNB-75): — (GI% < 10)
- GI% (NCI-H522): 37.48%
- GI% (NCI-H23): 12.20%
- GI% (RXF 393): 29.76%
- GI% (HS 578T): 13.31%
- GI% (LOX IMVI): 14.22%
- GI% (SF-295): 29.81%
- GI% (HL-60(TB)): 57.98%
- GI% (ACHN): 14.60%
- GI% (COLO 205): 22.66%
- GI% (786–0): 21.29%
- GI% (SW-620): 37.21%
- GI% (CAKI-1): 32.89%
- GI% (SR): — (GI% < 10)
- GI% (SK-MEL-5): 22.36%
- GI% (K-562): 44.30%
- GI% (CCRF-CEM): 32.30%
- GI% (SK-MEL-2): — (GI% < 10)
- GI% (TK-10): — (GI% < 10)
- GI% (A549/ATCC): 33.50%
- GI% (HOP-92): 45.40%
- GI% (MCF7): 27.06%
- GI% (BT-549): 43.62%
- GI% (NCI-H226): 46.54%
- GI% (IGROV1): — (GI% < 10)
- GI% (MDA-MB-468): 19.68%
- GI% (EKVX): 20.38%
- GI% (SF-268): 18.20%
- GI% (DU-145): 24.93%
- GI% (UACC-257): 24.66%
- GI% (PC-3): 57.37%
- GI% (SK-OV-3): 11.73%
- Mean GI% (NCI60 cell lines panel): 23.91%
- GI% (HT29): 61.63%
- GI% (U251): 31.17%
- GI% (MOLT-4): 38.07%
- GI% (OVCAR-5): — (GI% < 10)
- GI% (UACC-62): 22.80%
- GI% (NCI-H322M): 13.28%

Compound: N#Cc1c(Cl)nc(SCc2ccc(F)cc2)nc1-c1ccc(F)cc1 [3b, 4-Chloro-2-((4-fluorobenzyl)thio)-6-(4-fluorophenyl) pyrimidine-5-carbonitrile]
- GI% (OVCAR-3): — (GI% < 10)
- GI% (HCT-116): 18.51%
- GI% (RPMI-8226): — (GI% < 10)
- GI% (HOP-62): — (GI% < 10)
- GI% (HCC-2998): — (GI% < 10)
- GI% (KM12): — (GI% < 10)
- GI% (SN12C): 19.06%
- GI% (MDA-MB-435): — (GI% < 10)
- GI% (MALME-3M): — (GI% < 10)
- GI% (SNB-19): — (GI% < 10)
- GI% (T-47D): 33.18%
- GI% (A498): — (GI% < 10)
- GI% (NCI/ADR-RES): 13.45%
- GI% (HCT-15): 13.00%
- GI% (UO-31): 12.89%
- GI% (MDA-MB-231/ATCC): — (GI% < 10)
- GI% (NCI-H460): — (GI% < 10)
- GI% (SK-MEL-28): — (GI% < 10)
- GI% (SF-539): — (GI% < 10)
- GI% (M14): — (GI% < 10)
- GI% (OVCAR-4): — (GI% < 10)
- GI% (OVCAR-8): 10.81%
- GI% (SNB-75): — (GI% < 10)
- GI% (NCI-H522): 25.38%
- GI% (NCI-H23): — (GI% < 10)
- GI% (RXF 393): 10.29%
- GI% (HS 578T): — (GI% < 10)
- GI% (LOX IMVI): — (GI% < 10)
- GI% (SF-295): 10.01%
- GI% (HL-60(TB)): 49.83%
- GI% (ACHN): — (GI% < 10)
- GI% (COLO 205): — (GI% < 10)
- GI% (786–0): — (GI% < 10)
- GI% (SW-620): — (GI% < 10)
- GI% (CAKI-1): — (GI% < 10)
- GI% (SR): — (GI% < 10)
- GI% (SK-MEL-5): 13.82%
- GI% (K-562): 30.20%
- GI% (CCRF-CEM): 13.30%
- GI% (SK-MEL-2): — (GI% < 10)
- GI% (TK-10): — (GI% < 10)
- GI% (A549/ATCC): — (GI% < 10)
- GI% (HOP-92): 25.21%
- GI% (MCF7): 17.40%
- GI% (BT-549): — (GI% < 10)
- GI% (NCI-H226): 28.68%
- GI% (IGROV1): — (GI% < 10)
- GI% (MDA-MB-468): — (GI% < 10)
- GI% (EKVX): 10.91%
- GI% (SF-268): — (GI% < 10)
- GI% (DU-145): — (GI% < 10)
- GI% (UACC-257): — (GI% < 10)
- GI% (PC-3): — (GI% < 10)
- GI% (SK-OV-3): — (GI% < 10)
- Mean GI% (NCI60 cell lines panel): — (GI% < 10)
- GI% (HT29): 13.44%
- GI% (U251): — (GI% < 10)
- GI% (MOLT-4): 19.35%
- GI% (OVCAR-5): — (GI% < 10)
- GI% (UACC-62): 13.95%
- GI% (NCI-H322M): — (GI% < 10)
